Experimental data: PubChem BioAssay (NCI)
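Results reflect a 48-hour exposure of cells in 96-well plates to compound at five concentrations. Here, GI50 denotes the concentration required for 50% inhibition of growth. TGI: total growth inhibition.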

Legend:
Experiment in all cases: growth of human tumour cells (NCI), 48 h
786-0 renal = test system: 786-0 renal
A498 renal = test system: A498 renal
A549 NSCLC = test system: A549 NSCLC
ACHN renal = test system: ACHN renal
BT-549 breast = test system: BT-549 breast
CAKI-1 renal = test system: CAKI-1 renal
CCRF-CEM leukemia = test system: CCRF-CEM leukemia
COLO 205 colon = test system: COLO 205 colon
DLD-1 colon = test system: DLD-1 colon
DMS 114 small cell lung = test system: DMS 114 small cell lung
DU-145 prostate = test system: DU-145 prostate
EKVX NSCLC = test system: EKVX NSCLC
HCC-2998 colon = test system: HCC-2998 colon
HCT-116 colon = test system: HCT-116 colon
HCT-15 colon = test system: HCT-15 colon
HL-60(TB) leukemia = test system: HL-60(TB) leukemia
HOP-62 NSCLC = test system: HOP-62 NSCLC
HOP-92 NSCLC = test system: HOP-92 NSCLC
HS 578T breast = test system: HS 578T breast
HT29 colon = test system: HT29 colon
IGROV1 ovarian = test system: IGROV1 ovarian
K-562 leukemia = test system: K-562 leukemia
KM12 colon = test system: KM12 colon
KM20L2 colon = test system: KM20L2 colon
LOX IMVI melanoma = test system: LOX IMVI melanoma
LXFL 529 NSCLC = test system: LXFL 529 NSCLC
M14 melanoma = test system: M14 melanoma
M19-MEL melanoma = test system: M19-MEL melanoma
MCF7 breast = test system: MCF7 breast
MDA-MB-231 breast = test system: MDA-MB-231 breast
MDA-MB-435 = test system: MDA-MB-435
MOLT-4 leukemia = test system: MOLT-4 leukemia
NCI-H226 lung = test system: NCI-H226 lung
NCI-H23 lung = test system: NCI-H23 lung
NCI-H460 lung = test system: NCI-H460 lung
NCI-H522 lung = test system: NCI-H522 lung
NCI/ADR-RES ovarian = test system: NCI/ADR-RES ovarian
OVCAR-3 ovarian = test system: OVCAR-3 ovarian
OVCAR-4 ovarian = test system: OVCAR-4 ovarian
OVCAR-5 ovarian = test system: OVCAR-5 ovarian
OVCAR-8 ovarian = test system: OVCAR-8 ovarian
PC-3 prostate = test system: PC-3 prostate
RPMI-8226 leukemia = test system: RPMI-8226 leukemia
RXF 393 renal = test system: RXF 393 renal
RXF-631 renal = test system: RXF-631 renal
SF-268 CNS = test system: SF-268 CNS
SF-295 CNS = test system: SF-295 CNS
SF-539 CNS = test system: SF-539 CNS
SK-MEL-2 melanoma = test system: SK-MEL-2 melanoma
SK-MEL-28 melanoma = test system: SK-MEL-28 melanoma
SK-MEL-5 melanoma = test system: SK-MEL-5 melanoma
SK-OV-3 ovarian = test system: SK-OV-3 ovarian
SN12C renal = test system: SN12C renal
SNB-19 CNS = test system: SNB-19 CNS
SNB-75 CNS = test system: SNB-75 CNS
SNB-78 CNS = test system: SNB-78 CNS
SR leukemia = test system: SR leukemia
SW-620 colon = test system: SW-620 colon
T-47D breast = test system: T-47D breast
TK-10 renal = test system: TK-10 renal
U251 CNS = test system: U251 CNS
UACC-257 melanoma = test system: UACC-257 melanoma
UACC-62 melanoma = test system: UACC-62 melanoma
UO-31 renal = test system: UO-31 renal
XF 498 CNS = test system: XF 498 CNS
DMS 273 small cell lung = test system: DMS 273 small cell lung
MALME-3M melanoma = test system: MALME-3M melanoma

For CN(C)CCONC(=O)C12CC3CC(CC(C3)C1)C2, the TGI (786-0 renal) was greater than 100 µM, the TGI (A498 renal) was greater than 100 µM and the TGI (A549 NSCLC) was greater than 100 µM. The TGI (ACHN renal) was greater than 100 µM, the GI50 (BT-549 breast) was greater than 100 µM and the TGI (BT-549 breast) was greater than 100 µM. It also gave a TGI (CAKI-1 renal) greater than 100 µM, a TGI (CCRF-CEM leukemia) greater than 100 µM and a TGI (COLO 205 colon) greater than 100 µM. For the same molecule, the TGI (DLD-1 colon) was greater than 100 µM, the TGI (DMS 114 small cell lung) was greater than 100 µM and the GI50 (DU-145 prostate) was greater than 100 µM. It also gave a TGI (DU-145 prostate) greater than 100 µM, a TGI (EKVX NSCLC) greater than 100 µM and a GI50 (HCC-2998 colon) greater than 100 µM. For the same molecule, the TGI (HCC-2998 colon) was greater than 100 µM, the TGI (HCT-116 colon) was greater than 100 µM and the TGI (HCT-15 colon) was greater than 100 µM. It also gave a TGI (HL-60(TB) leukemia) greater than 100 µM, a TGI (HOP-62 NSCLC) greater than 100 µM and a TGI (HOP-92 NSCLC) greater than 100 µM. It also gave a GI50 (HS 578T breast) greater than 100 µM, a TGI (HS 578T breast) greater than 100 µM and a TGI (HT29 colon) greater than 100 µM. For the same molecule, the TGI (IGROV1 ovarian) was greater than 100 µM, the TGI (K-562 leukemia) was greater than 100 µM and the TGI (KM12 colon) was greater than 100 µM. It also gave a TGI (KM20L2 colon) greater than 100 µM, a TGI (LOX IMVI melanoma) greater than 100 µM and a TGI (LXFL 529 NSCLC) greater than 100 µM. It also gave a TGI (M14 melanoma) greater than 100 µM, a TGI (M19-MEL melanoma) greater than 100 µM and a GI50 (MCF7 breast) greater than 100 µM. It also gave a TGI (MCF7 breast) greater than 100 µM, a GI50 (MDA-MB-231 breast) greater than 100 µM and a TGI (MDA-MB-231 breast) greater than 100 µM. It also gave a GI50 (MDA-MB-435) greater than 100 µM, a TGI (MDA-MB-435) greater than 100 µM and a TGI (MOLT-4 leukemia) greater than 100 µM. The TGI (NCI-H226 lung) was greater than 100 µM, the TGI (NCI-H23 lung) was greater than 100 µM and the TGI (NCI-H460 lung) was greater than 100 µM. It also gave a TGI (NCI-H522 lung) greater than 100 µM, a GI50 (NCI/ADR-RES ovarian) greater than 100 µM and a TGI (NCI/ADR-RES ovarian) greater than 100 µM. It also gave a TGI (OVCAR-3 ovarian) greater than 100 µM, a GI50 (OVCAR-4 ovarian) greater than 100 µM and a TGI (OVCAR-4 ovarian) greater than 100 µM. It also gave a TGI (OVCAR-5 ovarian) greater than 100 µM, a TGI (OVCAR-8 ovarian) greater than 100 µM and a GI50 (PC-3 prostate) greater than 100 µM. The TGI (PC-3 prostate) was greater than 100 µM, the TGI (RPMI-8226 leukemia) was greater than 100 µM and the TGI (RXF 393 renal) was greater than 100 µM. For the same molecule, the TGI (RXF-631 renal) was greater than 100 µM, the TGI (SF-268 CNS) was greater than 100 µM and the TGI (SF-295 CNS) was greater than 100 µM. The TGI (SF-539 CNS) was greater than 100 µM, the TGI (SK-MEL-2 melanoma) was greater than 100 µM and the TGI (SK-MEL-28 melanoma) was greater than 100 µM. The TGI (SK-MEL-5 melanoma) was greater than 100 µM, the TGI (SK-OV-3 ovarian) was greater than 100 µM and the TGI (SN12C renal) was greater than 100 µM. It also gave a TGI (SNB-19 CNS) greater than 100 µM, a TGI (SNB-75 CNS) greater than 100 µM and a TGI (SNB-78 CNS) of 69.2 µM. It also gave a TGI (SR leukemia) greater than 100 µM, a GI50 (SW-620 colon) greater than 100 µM and a TGI (SW-620 colon) greater than 100 µM. The GI50 (T-47D breast) was greater than 100 µM, the TGI (T-47D breast) was greater than 100 µM and the TGI (TK-10 renal) was greater than 100 µM. It also gave a TGI (U251 CNS) greater than 100 µM, a TGI (UACC-257 melanoma) greater than 100 µM and a TGI (UACC-62 melanoma) greater than 100 µM. The TGI (UO-31 renal) was greater than 100 µM and the TGI (XF 498 CNS) was greater than 100 µM.
Molecule CCC1=CCN(c2ccc(C)cc2)OC1c1ccc(OC)cc1 (configuration not stated) has a TGI (786-0 renal) greater than 100 µM, a TGI (A549 NSCLC) greater than 100 µM and a TGI (ACHN renal) greater than 100 µM. It also gave a TGI (CAKI-1 renal) greater than 100 µM, a TGI (CCRF-CEM leukemia) greater than 100 µM and a TGI (COLO 205 colon) greater than 100 µM. It also gave a TGI (DLD-1 colon) greater than 100 µM, a TGI (DMS 114 small cell lung) greater than 100 µM and a TGI (DMS 273 small cell lung) greater than 100 µM. For the same molecule, the TGI (EKVX NSCLC) was greater than 100 µM, the TGI (HCC-2998 colon) was greater than 100 µM and the TGI (HCT-116 colon) was greater than 100 µM. For the same molecule, the TGI (HCT-15 colon) was greater than 100 µM, the TGI (HL-60(TB) leukemia) was greater than 100 µM and the TGI (HOP-62 NSCLC) was greater than 100 µM. It also gave a TGI (HT29 colon) greater than 100 µM, a TGI (IGROV1 ovarian) greater than 100 µM and a TGI (K-562 leukemia) greater than 100 µM. The TGI (KM12 colon) was greater than 100 µM, the TGI (KM20L2 colon) was greater than 100 µM and the TGI (LOX IMVI melanoma) was greater than 100 µM. It also gave a TGI (LXFL 529 NSCLC) greater than 100 µM, a TGI (M14 melanoma) greater than 100 µM and a TGI (M19-MEL melanoma) greater than 100 µM. The TGI (MALME-3M melanoma) was greater than 100 µM, the TGI (MOLT-4 leukemia) was greater than 100 µM and the TGI (NCI-H226 lung) was greater than 100 µM. The TGI (NCI-H23 lung) was greater than 100 µM, the TGI (NCI-H460 lung) was greater than 100 µM and the TGI (NCI-H522 lung) was greater than 100 µM. It also gave a TGI (OVCAR-3 ovarian) greater than 100 µM, a TGI (OVCAR-4 ovarian) greater than 100 µM and a TGI (OVCAR-5 ovarian) greater than 100 µM. It also gave a TGI (OVCAR-8 ovarian) greater than 100 µM, a TGI (RPMI-8226 leukemia) greater than 100 µM and a TGI (RXF 393 renal) greater than 100 µM. It also gave a TGI (RXF-631 renal) greater than 100 µM, a TGI (SF-268 CNS) greater than 100 µM and a TGI (SF-295 CNS) greater than 100 µM. It also gave a TGI (SF-539 CNS) greater than 100 µM, a TGI (SK-MEL-2 melanoma) greater than 100 µM and a TGI (SK-MEL-28 melanoma) greater than 100 µM. The TGI (SK-OV-3 ovarian) was greater than 100 µM, the TGI (SN12C renal) was greater than 100 µM and the TGI (SNB-19 CNS) was greater than 100 µM. The TGI (SNB-75 CNS) was greater than 100 µM, the TGI (SNB-78 CNS) was greater than 100 µM and the TGI (SR leukemia) was greater than 100 µM. It also gave a TGI (SW-620 colon) greater than 100 µM, a TGI (TK-10 renal) greater than 100 µM and a TGI (U251 CNS) greater than 100 µM. For the same molecule, the TGI (UACC-257 melanoma) was greater than 100 µM, the TGI (UACC-62 melanoma) was greater than 100 µM and the TGI (UO-31 renal) was greater than 100 µM. The TGI (XF 498 CNS) was greater than 100 µM.
